From PubChem BioAssay (NCI)
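Compound exposure: 48 hours, 5 concentrations, 96-well plates. GI50 = concentration required for 50% inhibition of growth. The concentration for full growth arrest is given as TGI.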

Test system: MDA-MB-468 breast
Assay: NCI anticancer screen, dose series, 48 h

Structure (SMILES) | GI50 | TGI
CCN(CC)c1ccc(/C=C2/C[N+](C)(C)C/C(=C/c3ccc(N(CC)CC)cc3)C2=O)cc1 | 1.32 µM | 3.57 µM
N#Cc1ncc(-c2ccc(C(F)(F)F)cc2)c(NCc2cc(C(F)(F)F)cc(C(F)(F)F)c2)n1 | 2.56 µM | 7.38 µM
Nc1ccccc1-c1ccc([N+](=O)[O-])cc1 | 13.4 µM | > 100 µM
CC(=O)N1N=C(c2ccc(Nc3nc(Nc4ccc(Cl)cc4)nc(Nc4ccc(Cl)cc4)n3)cc2)CC1c1ccc([N+](=O)[O-])cc1 (stereo not given) | 3.08 µM | > 100 µM
COc1cc(C(=O)N2N=C(c3ccc(S(C)(=O)=O)cc3)CC2c2ccco2)cc(OC)c1OC (stereo not given) | 2.49 µM | > 26 µM
Cc1cc2cc3cc(C)c(N(C)C)cc3[n+](C)c2cc1N(C)C | 0.95 µM | 13.5 µM
O=c1c2ccccc2c(Br)c(Br)c2ccccc12 | 2.74 µM | 9.55 µM
O=S(=O)(Cc1ccc(Cl)cc1Cl)c1ccc(Cl)cc1 | 0.265 µM | 2.19 µM
CC(=O)Nc1ccc(/C=C/C(=O)c2ccccc2)cc1 | 11.7 µM | 26 µM
CN(c1cc2ncc(=O)[nH]c2cc1NC(N)=NCc1ccc(Cl)cc1)C1CCCCC1 | 1.23 µM | 4.42 µM
CCCc1cc(O)c2c3c(c(=O)oc2c1)CN(C)CC3 | 24.2 µM | 85.2 µM
Cn1cc(C2=C(c3cn(CCO)c4ccccc34)C(=O)NC2=O)c2ccccc21 | 2.52 µM | 10.8 µM
CC(C)[C@H]1CC[C@H]2[C@@H](CC[C@H]3[C@](C)(CN)CCC[C@]23C)C1 | 8.83 µM | 23.5 µM
N#C/C(=N\Nc1ccc(Cl)cc1)C(=O)Nc1cc(-c2ccccc2)nn1-c1ccccc1 | 1.84 µM | 5.93 µM
N#Cc1cccc(OCc2nc(N)nc(N)c2-c2ccc(Cl)c(Cl)c2)c1 | 3.08 µM | > 100 µM
Cc1ccc(NC(=O)Cc2ccc(/C=C/C(=O)c3ncc[nH]3)cc2)cc1 | 3.3 µM | 23.4 µM
COc1cc2cc(C(=O)CCC(=O)O)sc2cc1OC | > 100 µM | > 100 µM
COc1cc(-c2nc3sccn3c2-c2ccnc(NCCNS(=O)(=O)c3ccc(Cl)cc3)n2)ccc1F | 2.48 µM | > 100 µM
CCOc1ccccc1NC(=O)c1cc2ccccc2cc1O | 2.38 µM | 7.18 µM
O=C1C2C(C(=O)[N]1[Hg][c]1cccs1)C1(Cl)C(Cl)=C(Cl)C2(Cl)C1(Cl)Cl (stereo not given) | 1.25 µM | 2.7 µM
CCCCCc1nc2c(c3c1CCCC3)CCCC2 | 4.13 µM | 18.1 µM
O=C(Nc1ccc(F)cc1)Nc1ccccc1CNc1nc(Nc2ccc(OCCN3CCCC3)cc2)ncc1Cl | 1.12 µM | 2.89 µM
c1ccc(C2CC(c3cccc(Nc4ccncc4)c3)=NN2c2ccccc2)cc1 (stereo not given) | 1.49 µM | 3.02 µM

Structure (SMILES) | GI50 | TGI
Cn1ccnc1C(=O)/C=C/c1ccc(C(=O)Nc2ccc(S(F)(F)(F)(F)F)cc2)cc1 | 0.423 µM | 13.8 µM
C/C=C/C/C=C/CCC(=O)[C@H]1O[C@H]1C(N)=O | 11.7 µM | 25.9 µM
Cc1ccc2c(c1)c1nc3cc(C)c(C)cc3nc1n2CCN(C)C | 1.39 µM | 3.54 µM
O=c1c2c3c(sc2n2c(-c4cc(-c5ccccc5)no4)nnc2n1Cc1ccccc1)CCCC3 | 14.6 µM | 43.8 µM
COc1ccc(C2CC(c3cccc(Nc4ccncc4)c3)=NN2c2ccc(Cl)cc2)cc1 (stereo not given) | 1.45 µM | 2.95 µM
CCCCCCc1cc2cc(-c3nc4ccccc4[nH]3)c(=Nc3ccccc3C)oc2cc1O | 1.82 µM | 3.74 µM
Cn1cc(C2=C(c3cccc(N)c3)C(=O)NC2=O)c2ccccc21 | > 18.2 µM | > 25 µM
CC(C)Nc1ccc(Nc2ccccc2)cc1 | 4.45 µM | 19.7 µM
COc1cccc(C2C3=C(COC3=O)N(CCO)c3cc(OC)ccc32)c1 (stereo not given) | 0.0365 µM | 1.26 µM
CCN1/C(=C/C=C/c2n(-c3ccccc3)c3ccc(-c4nc5ccccc5s4)cc3[n+]2CC)N(c2ccccc2)c2ccc(-c3nc4ccccc4s3)cc21 | 0.283 µM | > 50 µM
CCOc1ccc(-c2cnnn2-c2nonc2-n2cccc2)cc1 | 0.12 µM | 0.495 µM
CC/C(=C(/c1ccc(OCCN(C)C)cc1)c1ccc(OC(=O)CCC(=O)c2c(C)[nH]c(/C=C3\N=C(c4ccc[nH]4)C=C3OC)c2C)cc1)c1ccccc1 | 2.9 µM | 14 µM
Oc1ccccc1/C=N/Nc1nc(N/N=C/c2ccccc2O)nc(N2CCOCC2)n1 | 4.11 µM | 35.9 µM
O=C(CSc1nc2sc3c(c2c(=O)n1-c1ccc(Cl)cc1)CCCC3)NNC(=O)Nc1ccc(Cl)c(C(F)(F)F)c1 | 1.55 µM | 3.66 µM
Clc1ccc(/C=C/c2cc(N3CCOCC3)c3cc(Cl)c(Cl)cc3n2)cc1 | > 100 µM | > 100 µM
Oc1ccc(CN2CCC(N3CCOCC3)CC2)c2cccnc12 | 22.6 µM | 60.6 µM
CC(C)c1c(C(=O)Nc2ccccc2)c(-c2ccccc2)c(-c2ccc(F)cc2)n1CC[C@@H]1CC=CC(=O)O1 | 1.83 µM | 3.82 µM
O=c1ccc(N=Nc2ccc([N+](=O)[O-])cc2)ccc1O | 3.8 µM | 81.2 µM
CN(Cc1ccc(Cl)cc1)c1ccc(CO)c(Cl)c1 | 0.0657 µM | 0.219 µM
N/C(=C\C(=O)n1nc(-c2ccccc2)cc1N)c1ccccc1 | 5.54 µM | 56.3 µM
Cc1cc(NCCCNc2ccnc3cc(Cl)ccc23)nc(N2CCN(C)CC2)n1 | 1.76 µM | 5.97 µM
Clc1cc2c(cc1Cl)Oc1cc(Cl)c(Cl)cc1O2 | > 0.625 µM | > 0.625 µM
